In patent US12565489B2, “Heterocyclyl pyrimidines and triazines as novel fungicides” (Bayer Aktiengesellschaft, priority 2020, dated 2026) one finds chromatographic logP, inhibition and pest or weed control data, which are given here for two compounds.

Series [1] in a line: Measurement of Log P values by HPLC on reversed phase columns (EEC directive 79/831 Annex V.A8). It counts as physicochemical. To be noted: LogP. The procedure, abridged: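 Reversed-phase HPLC per EEC directive 79/831 Annex V.A8 with UV detection, 10→95% acetonitrile linear gradient; eluent either 0.1% formic acid (acidic), 0.001 molar ammonium acetate (neutral) or 0.1% phosphoric acid (acidic). Calibrated with C3–C16 straight-chain alkan-2-ones by linear interpolation of retention times; multiple values joined by "+".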

Another series concerns Alternaria alternata. In words: Alternaria alternata in vitro cell test. To be noted: 120 h, 20 ppm of active ingredient, 5 days incubation, liquid culture, spectrometric measurement of mycelium growth, read-out: efficacy (inhibition of fungal growth). It counts as cell-based. On the procedure:
(§1) • Solvent: DMSO • Culture medium: 14.6 g anhydrous D-glucose (VWR), 7.1 g Mycological Peptone (Oxoid), 1.4 g granulated Yeast Extract (Merck), QSP 1 liter • Inoculum: spore suspension Fungicides were solubilized in DMSO and the solution used to prepare the required range of concentrations. […] A spore suspension of A. alternata was prepared and diluted to the desired spore density. Fungicides were evaluated for their ability to inhibit spore germination and mycelium growth in liquid culture assay. The compounds were added in the desired concentration to the culture medium with spores. After 5 days incubation, fungi-toxicity of compounds was determined by spectrometric measurement of mycelium growth. Inhibition of fungal growth was determined by comparing the absorbance values in wells containing the fungicides with the absorbance in control wells without fungicides.

The subject of another series is Pyricularia oryzae. Kind of series: microbe, parasite or virus in culture. In kind it is cell-based. To be noted: 120 h, read-out: efficacy (inhibition of fungal growth).
Series [2] has as its system Colletotrichum lindemuthianum. In words: Colletotrichum lindemuthianum in vitro cell test. In kind it is cell-based. To be noted: 144 h, 20 ppm of active ingredient, 6 days incubation, liquid culture, spectrometric measurement of mycelium growth, read-out: efficacy (inhibition of fungal growth). As for the experimental part: as §1, with “of C. lindemuthianum” for “of A. alternata”, “inhibit spores” for “inhibit spore”, “After 6” for “After 5”

In the next series the test system is Pyrenophora teres. Kind of series: Pyrenophora teres in vitro cell test. In kind it is cell-based. To be noted: 144 h, 20 ppm of active ingredient, 6 days incubation, liquid culture, spectrometric measurement of mycelium growth, read-out: efficacy (inhibition of fungal growth). On the procedure: as §1, with “P. teres” for “A. alternata”, “6” for “5”
In series [3] the test system is Botrytis cinerea. In words: Botrytis cinerea in vitro cell test. It counts as cell-based. Particulars: 144 h, 20 ppm of active ingredient, 6 days incubation, liquid culture, spectrometric measurement of mycelium growth, read-out: efficacy (inhibition of fungal growth). As for the experimental part: (§2) • Solvent: DMSO • Culture medium: 1 g KH2PO4 (VWR), 1 g K2HPO4 (VWR), 0.5 g Urea (VWR), 3 g KNO3 (Prolabo), 10 g saccharose (VWR), 0.5 g MgSO4, 7H2O (Sigma), 0.07 g CaCl2, 2H2O (Prolabo), 0.2 mg MnSO4, H2O (Sigma), 0.6 mg CuSO4, 5H2O (Sigma), 7.9 mg ZnSO4, 7H2O (Sigma), 0.1 mg H3BO3 (Merck), 0.14 mg NaMoO4, 2H2O (Sigma), 2 mg thiamine (Sigma), 0.1 mg biotine (VWR), 4 mg FeSO4, 7H2O (Sigma), QSP 1 liter • Inoculum: spore suspension Fungicides were solubilized in DMSO and the solution used to prepare the required range of concentrations. […] A spore suspension of B. cinerea was prepared and diluted to the desired spore density. Fungicides were evaluated for their ability to inhibit spore germination and mycelium growth in liquid culture assay. The compounds were added in the desired concentration to the culture medium with spores. After 6 days incubation, fungi-toxicity of compounds was determined by spectrometric measurement of mycelium growth. Inhibition of fungal growth was determined by comparing the absorbance values in wells containing the fungicides with the absorbance in control wells without fungicides.

A further series deals with Septoria tritici. Kind of series: Septoria tritici in vitro cell test. In kind it is cell-based. To be noted: Zymoseptoria tritici, 168 h; 20 ppm of active ingredient; 7 days incubation; liquid culture, spectrometric measurement of mycelium growth; read-out: efficacy (inhibition of fungal growth). On the procedure: as §2, with “S. tritici” for “B. cinerea”, “After 6 days incubation, fungi-toxicity of compounds was determined by spectrometric measurement of mycelium growth.” left out

Another series relates to Alternaria brassicae. Kind of series: In vivo preventive test on Alternaria brassicae (leaf spot on radish or cabbage). To be noted: 144 h, 500 ppm of active ingredient, preventive spray on young radish or cabbage plants, evaluated 6 days after inoculation, read-out: efficacy. As for the experimental part: The active ingredients were made soluble and homogenized in a mixture of Dimethyl sulfoxide/Acetone//Tween®80 and then diluted in water to the desired concentration. The young plants of radish or cabbage were treated by spraying the active ingredient prepared as described above. Control plants were treated only with an aqueous solution of Acetone/Dimethyl sulfoxide/Tween® 80. After 24 hours, the plants were contaminated by spraying the leaves with an aqueous suspension of Alternaria brassicae spores.

In series [4] the test system is Botrytis cinerea. Kind of series: In vivo preventive test on Botrytis cinerea (grey mould). To be noted: 500 ppm of active ingredient, preventive spray on young gherkin or cabbage plants, evaluated 4 to 5 days after inoculation, read-out: efficacy. On the procedure: The active ingredients were made soluble and homogenized in a mixture of Dimethyl sulfoxide/Acetone//Tween®80 and then diluted in water to the desired concentration. The young plants of gherkin or cabbage were treated by spraying the active ingredient prepared as described above. Control plants were treated only with an aqueous solution of Acetone/Dimethyl sulfoxide/Tween® 80. After 24 hours, the plants were contaminated by spraying the leaves with an aqueous suspension of Botrytis cinerea spores.

The subject of another series is Sphaerotheca fuliginea. In words: In vivo preventive test on Sphaerotheca fuliginea (powdery mildew on cucurbits). Particulars: Podosphaera fuliginea, 192 h; 500 ppm of active ingredient; preventive spray on young gherkin plants; evaluated 8 days after inoculation; read-out: efficacy. As for the experimental part:
The active ingredients were made soluble and homogenized in a mixture of Dimethyl sulfoxide/Acetone//Tween®80 and then diluted in water to the desired concentration. The young plants of gherkin were treated by spraying the active ingredient prepared as described above. Control plants were treated only with an aqueous solution of Acetone/Dimethyl sulfoxide/Tween® 80. After 24 hours, the plants were contaminated by spraying the leaves with an aqueous suspension of Sphaerotheca fuliginea spores.

The structures appear in SMILES notation.

Consider `Cc1ccc(CC2CON=C(c3nc(C)ncc3Oc3cccc([N+](=O)[O-])c3)N2)c(C)c1` (racemic) [Compound I-003, (5RS)-5-(2,4-dimethylbenzyl)-3-[2-methyl-5-(3-nitro-phenoxy)pyrimidin-4-yl]-5,6-dihydro-4H-1,2,4-oxadiazine], for which, in series [1], the chromatographic logP (as a rule, lipophilicity estimated from chromatographic retention) is 3.78. Further, the inhibition at 20 ppm (in the series on Alternaria alternata; with Pyricularia oryzae; in [2]; in the series with Pyrenophora teres; in the series with Botrytis cinerea [3]; in the series with Septoria tritici) was 90 to 100% throughout. For the same compound, the results for the pest or weed control at 500 ppm with Alternaria brassicae, in the series on Botrytis cinerea [4] and in the series on Sphaerotheca fuliginea were 90 to 100%, 90 to 100% and 80 to 89%, respectively.
On to `Cc1ncc(Oc2cccc(Cl)c2)c(C2=NOCC(c3ccc4c(c3)CCC4)N2)n1` (racemic) [Compound I-014, (5RS)-3-[5-(3-chlorophenoxy)-2-methyl-pyrimidin-4-yl]-5-indan-5-yl-5,6-dihydro-4H-1,2,4-oxadiazine], for which, in series [1], the chromatographic logP amounted to 4.05. Moreover, the inhibition at 20 ppm (in the series on Alternaria alternata; with Pyricularia oryzae; in series [2]; in the series with Pyrenophora teres; in the series on Botrytis cinerea [3]; in the series on Septoria tritici) was 90 to 100% throughout. The pest or weed control at 500 ppm in the series on Alternaria brassicae, with Botrytis cinerea [4] and in the series with Sphaerotheca fuliginea was 90 to 100% in each case.
